Laboratory results from patent US20230165973A1, “COMPOSITIONS AND METHODS FOR DELIVERING MESSENGER RNA” (ARBUTUS BIOPHARMA CORPORATION, priority 2013, published 2023).
Several values for one entry are separate records, joined by “and”; a condition that tells them apart may be missing. Equal values may be shown once. Blank lines part the entries; values can stand above or below the compound they belong to.

Columns and labels:
[1] = Formulability: LNP particle size, polydispersity and mRNA encapsulation (Example 2); assay type: physicochemical; conditions: mLuc LNP with the aminolipid at 54.6 mol %; 12.6 mM lipid stock
Protocol: (§1) The experiments described in this Example 2 used a firefly luciferase mRNA (“mLuc”), fully modified with pseudouridine and 5-methylcytidine replacing uridine and cytidine respectively. The LNP formulation used in these studies have the following general lipid composition (molar ratios): PEG-lipid (PEG2000-C-DMA (1.6 mol %); appropriate aminolipid (54.6 mol %); cholesterol (32.8 mol %); and DSPC (10.9 mol %). A lipid stock was prepared with the appropriate lipids dissolved in ethanol (12.6 mM). The mLuc stock was made up in a 40 mM EDTA buffer at 0.366 mg/mL in 40 mM EDTA. The two stocks were combined using the Jeffs et al method (Pharm. Research (2005), 22(3), pages 362-372), blending in a t-connector and diluted into Phosphate Buffered Saline, pH 7.4. Buffer exchange was then performed via overnight bag dialysis against 10× volume of PBS. After dialysis, LNP were concentrated by centrifugation in Vivaspin-6 or Vivaspin-20 units (MWCO 100 k) from GE Healthcare. The LNP were then sterile filtered (0.2 μm filter). Concentration of the LNP was determined using RiboGreen and a Varian Cary Eclipse Fluorimeter. Particle size and polydispersity were determined using a Malvern Nano Series Zetasizer.
The effect of the choice of aminolipid on parameters such as formulability and potency in the mRNA formulations was examined. As benchmarks, we selected the dilinoleyl lipids 5, 6, 7, and 8. […] We also selected a range of lipids with hydrophobic domains consisting of multiple (3 or 4) alkyl chains; 10, 9, 11, 13, 14, 17, and 18. Formulations were prepared as described above, using a 12.6 mM lipid stock.

[2] = Reproducibility of lipid particle formulation; assay type: physicochemical; conditions: multiple mLuc LNP formulations; lipid stock 8.3-19.0 mM total lipid
Protocol: Two aminolipids were selected to examine the reproducibility of lipid particle formulation. The benchmark dilinoleyl aminolipid MC3 was compared to the short trialkyl lipid 13-B43.
Multiple formulations were made, using the following composition (expressed as molar percentages): PEG-lipid (PEG2000-C-DMA) (1.6 mol %); amino lipid (54.6 mol %); cholesterol (32.8 mol %); and DSPC (10.9 mol %), according to the general procedures described above. The lipid stock was prepared in ethanol (ranging from 8.3-19.0 mM total lipid). The mRNA stock was prepared at 0.366 mg/mL in 40 mM EDTA. Buffer exchange was then performed via overnight bag dialysis against 10× volume of PBS. Samples were then concentrated to […] mRNA by centrifugation in Vivaspin-20 units (MWCO 100 k) from GE Healthcare. The LNP were then sterile filtered. Concentration of the LNP was determined using RiboGreen and a Varian Cary Eclipse Fluorimeter. Particle size and polydispersity were determined using a Malvern Nano Series Zetasizer.

naïve Balb/C mice = experiment: Luciferase liver model, aminolipid potency comparison (Example 2); assay type: in vivo, mouse; conditions: intravenously, 0.5 mg/kg total mRNA, six hours following injection
Protocol: as §1
LNP containing a luciferase mRNA payload were dosed at 0.5 mg/kg in naïve Balb/C mice (n=3). Six hours following injection, the mice were euthanized and livers were removed, weighed, and placed in lysing matrix tubes (containing one ceramic bead) on ice. PBS treatment groups were included to determine the background level of quenching of luciferase activity caused by the tissue homogenate in the Luciferase assay. Following collection, the tissues from these PBS treated animals were spiked with 50 μL of 100 ng/mL Luciferase solution in 1×CCLR (Cell Culture Lysis Reagent). Tissues were stored at −80° C. until Luciferase assay was performed.
(§2) All sample processing procedures were performed on ice. Tissues were homogenized and centrifuged in an Eppendorf microfuge at 3000 rpm & 4° C. for 10 minutes. After centrifugation, 20 μL of homogenate was aliquoted in duplicate into a white 96-well luminometer plate. Firefly luciferase […] was then analyzed on the EG&G Berthold Microplate Luminometer LB using the Promega Luciferase Assay System. The luciferase activity within the wells was determined by comparing the resulting RLUs for the homogenates to a standard curve prepared from 20 μL of firefly luciferase. A quenching factor was assigned to each tissue to control for natural quenching from the homogenates. This was determined using luciferase-spiked tissue from PBS treated mice.
The various formulations described were also assessed for potency in the mouse liver model. As an additional control, the use of the commercially available delivery reagent TransIT (Mirus) has been described in the literature for delivery of mRNA. A 0.05 mg/mL solution of TransIT-mRNA complex was prepared as follows. 50 μL of 1 mg/mL mRNA was added to 860 μL of DMEM, and to this solution the reagents from the TransIT-mRNA kit (Mirus) were added. In sequential order, 35 μL of the mRNA Boost reagent was added followed by 55 μL of the TransIT-mRNA reagent. The final solution was then incubated for 2-5 minutes before intravenous or intraperitoneal dosing.
All formulations were administered intravenously at a dose of 0.5 mg/kg total mRNA.

Balb/C mice = experiment: Luciferase assay of Example 1 with tetraalkyl lipids, liver (Example 8); assay type: in vivo, mouse; conditions: particles comprising the lipid, assay described in Example 1
Protocol: In the liver model, LNP were dosed at 0.5 mg/kg in the naïve Balb/C mice (n=5). Six hours following injection, the mice were euthanized and the livers were removed, weighed, and placed in lysing matrix tubes (containing one ceramic bead) on ice.
as §2, with “rpm at” for “rpm &”, “resulting Relative Light Units (RLUs)” for “resulting RLUs”
In particular, the tetraalkyl lipids mediated an enhanced level of delivery of luciferase mRNA to living cells than the established benchmark dialkyl lipid 8 shown in Table 8.

SMILES: CCCCC/C=C\C/C=C\CCCCCCCCC(CCCCCCCC/C=C\C/C=C\CCCCC)OC(=O)CCCN(C)C [Compound 7, (6Z,9Z,28Z,31Z)-heptatriaconta-6,9,28,31-tetraen-19-yl 4-(dimethylamino)butanoate]
% Encaps (Percentage Encapsulation) [1]: 50%
PDI (polydispersity index) [1]: 0.11
Zavg (average lipid particle diameter) [1]: 158 nm
% Encaps of mLuc [2]: 56% and 63% and 49% and 50% and 69% and 52%
Particle size [2]: 134 nm and 151 nm and 158 nm and 119 nm
Polydispersity Index [2]: 0.11 and 0.07 and 0.08 and 0.14 and 0.12
Luciferase protein in ng per g of liver (naïve Balb/C mice): 369.85 ng per g of liver

SMILES: CCCCC/C=C\C/C=C\CCCCCCCCC(CCCCCCCC/C=C\C/C=C\CCCCC)OCCCN(C)C [Compound 8]
Activity in luciferase assay (Balb/C mice): 774,159 pg/g liver tissue
% Encaps (Percentage Encapsulation) [1]: 57%
PDI (polydispersity index) [1]: 0.13
Zavg (average lipid particle diameter) [1]: 144 nm
Luciferase protein in ng per g of liver (naïve Balb/C mice): 264.90 ng per g of liver

SMILES: CCCCC/C=C\C/C=C\CCCCCCCCC(OC(=O)CCCCN(C)CC)C(O)(CCCCCCCC/C=C\C/C=C\CCCCC)CCCCCCCC/C=C\C/C=C\CCCCC (stereo not drawn) [Compound 10, (6Z,9Z,29Z,32Z)-20-hydroxy-20-((9Z,12Z)-octadeca-9,12-dienyl)octatriaconta-6,9,29,32-tetraen-19-yl 5-(ethyl(methyl)amino)pentanoate]
Luciferase protein in ng per g of liver (naïve Balb/C mice): 203.47 ng per g of liver

SMILES: CCCCCCCCC(CCCCCC)CC(CC(CCCCCC)CCCCCCCC)OC(=O)CCCCN(C)C (stereo not drawn) [Compound 35, 9,13-dihexylhenicosan-11-yl 5-(dimethylamino)pentanoate]
Activity in luciferase assay (Balb/C mice): 1,412,464 pg/g liver tissue

SMILES: CCCCCCCCC(CCCCCC)CC(CC(CCCCCC)CCCCCCCC)OC(=O)CCCCCN(C)C (stereo not drawn) [Compound 37, 9,13-dihexylhenicosan-11-yl 6-(dimethylamino)hexanoate]
Activity in luciferase assay (Balb/C mice): 2,228,526 pg/g liver tissue

SMILES: CCCCC/C=C\CCCC(CCC/C=C\CCCCC)C(CC(CCCC)CCCCCC)OC(=O)CCCCN(C)C (stereo not drawn) [Compound 43, (Z)-7-butyl-10-((Z)-dec-4-en-1-yl)icos-14-en-9-yl 5-(dimethylamino)pentanoate]
Activity in luciferase assay (Balb/C mice): 919,590 pg/g liver tissue

The next lines start with results.

% Encaps (Percentage Encapsulation) [1]: 62%
PDI (polydispersity index) [1]: 0.06
Zavg (average lipid particle diameter) [1]: 95 nm
SMILES: CCCCC/C=C\CCCC(CCC/C=C\CCCCC)C(CCC/C=C\CCCCC)OC(=O)CCCN(C)C (stereo not drawn) [Compound 9]
Luciferase protein in ng per g of liver (naïve Balb/C mice): 968.83 ng per g of liver

% Encaps (Percentage Encapsulation) [1]: 88%
PDI (polydispersity index) [1]: 0.08
Zavg (average lipid particle diameter) [1]: 117 nm
SMILES: CCC/C=C\CCC(CC/C=C\CCC)CC(OC(=O)CCCCN(C)C)C(CC/C=C\CCC)CC/C=C\CCC (stereo not drawn) [Compound 18]
Luciferase protein in ng per g of liver (naïve Balb/C mice): 1388.39 ng per g of liver

% Encaps (Percentage Encapsulation) [1]: 78%
PDI (polydispersity index) [1]: 0.10
Zavg (average lipid particle diameter) [1]: 138 nm
SMILES: CCCCC/C=C\CCCC(CCC/C=C\CCCCC)C(CC/C=C\CCCCC)OC(=O)CCCCN(C)C (stereo not drawn) [Compound 19]
